Reference: patent publication US7572606B1 (Nereus Pharmaceuticals, Inc., priority 2005, dated 2009)
“And” between values parts separate entries of the source, which are not always exact repeats. Equal entries are not always repeated. Where two headings read alike, the source gives them in different places.

Tests used:
[1] = molecular target: T1, trypsin-like activity of rabbit muscle 20S proteasome (Oryctolagus cuniculus, UniProt G1SWK8); assay: In vitro inhibition of 20S proteasome, Boc-LRR-AMC; type: biochemical; settings: for EC50: purified rabbit 20S proteasome, Boc-LRR-AMC; for inhibition of the trypsin-like activity of the 20S proteasome: under the conditions tested
T1 construct: EC50 Trypsin-like; other: purified rabbit 20S proteasome, Boc-LRR-AMC; other: under the conditions tested
T1 sequence (G1SWK8 1-271): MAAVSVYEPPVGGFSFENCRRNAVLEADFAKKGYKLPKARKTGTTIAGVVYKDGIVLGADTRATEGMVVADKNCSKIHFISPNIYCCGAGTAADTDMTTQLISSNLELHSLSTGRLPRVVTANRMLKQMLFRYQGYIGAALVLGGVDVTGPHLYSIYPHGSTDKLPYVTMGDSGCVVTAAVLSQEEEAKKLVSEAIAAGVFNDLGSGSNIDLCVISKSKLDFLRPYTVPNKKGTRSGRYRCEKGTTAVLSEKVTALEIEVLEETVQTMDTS

OVCAR-3 = assay: Cell growth inhibition, resazurin, 48 h; type: cell-based, human; settings: OVCAR-3, 48 h drug exposure
B16-F10 = assay: Cell growth inhibition, resazurin, 48 h; type: cell-based, mouse; settings: B16-F10, 48 h drug exposure
Procedure: (§1) RPMI 8226 (CCL-155), HT-29 (HTB-38), and B16-F10 (CRL-6475) cells were purchased from ATCC. RPMI 8226 cells were maintained in RPMI 1640 media supplemented with 10% (v/v) FBS, 2 mM L-glutamine, 1 mM sodium pyruvate and Penicillin/Streptomycin at 100 IU/ml and 100 μg/ml, respectively. HT-29 cells were maintained in McCoys 5A supplemented with 10% (v/v) FBS, 2 mM L-glutamine, 1 mM sodium pyruvate, 1% (v/v) non-essential amino acids, 10 mM HEPES and Penicillin/Streptomycin at 100 IU/ml and 100 μg/ml, respectively. B16-F10 cells were maintained in DMEM supplemented with 10% (v/v) FBS, 2 mM L-glutamine, 10 mM HEPES and Penicillin/Streptomycin at 100 IU/ml and 100 μg/ml, respectively.
(§2) RPMI 8226 cells were seeded at 2×10^4 cells/well in 90 μl RPMI media containing 10% (v/v) FBS or 1% (v/v) FBS into 96 well black-walled, clear-bottom tissue culture plates. […] Formulae II-16, II-17 and Formula II-18 were serially diluted in media containing 1% or 10% FBS and added in triplicate to the test wells. […] The final concentration of Formula II-18 ranged from 2 μM to 630 pM.

NCI-H292 = assay: Cell growth inhibition, resazurin, 48 h; type: cell-based, human; settings: NCI-H292, 48 h drug exposure
[2] = molecular target: caspase-like (PGPH) activity of rabbit muscle 20S proteasome (Oryctolagus cuniculus, UniProt A0A5F9DQW2); assay: In vitro inhibition of 20S proteasome, Z-LLE-AMC; settings: purified rabbit 20S proteasome, Z-LLE-AMC
Sequence of caspase-like (PGPH) activity of rabbit muscle 20S proteasome (A0A5F9DQW2 1-212): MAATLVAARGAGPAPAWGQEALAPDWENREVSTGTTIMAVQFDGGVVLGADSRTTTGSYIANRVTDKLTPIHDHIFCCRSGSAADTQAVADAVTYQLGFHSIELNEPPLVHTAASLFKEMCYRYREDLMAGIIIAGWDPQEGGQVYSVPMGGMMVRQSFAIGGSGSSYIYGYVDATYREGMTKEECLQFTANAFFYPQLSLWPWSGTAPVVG

[3] = system: NF-κB-mediated luciferase activity in HEK293 NF-κB/Luc cells; assay: NF-κB-mediated luciferase reporter gene assay; type: cell-based, human; settings: for EC50: 6 h TNF-α stimulation; for luciferase activity upon TNF-α stimulation: pretreatment of NF-κB/Luc 293 cells
Procedure: The HEK293 NF-κB/luciferase reporter cell line is a derivative of the human embryonic kidney cell line (ATCC; CRL-1573) and carries a luciferase reporter gene under the regulation of 5×NF-κB binding sites. […] When performing the luciferase assay, the DMEM basal medium was replaced with phenol-red free DMEM basal medium and the G418 was omitted.
For NF-κB-mediated luciferase assays, HEK293 NF-κB/luciferase cells were seeded at 1.5×10^4 cells/well in 90 μl phenol-red free DMEM complete medium into Corning 3917 white opaque-bottom tissue culture plates. For Formulae II-2, II-4, II-5A and II-18, a 400 μM starting dilution was made in 100% DMSO and this dilution was used to generate an 8-point half log dilution series. […] For formula II-20, a 2.5 mM or 8 mM starting dilution was made in 100% DMSO and the final test concentrations ranged from 6.3 μM to 2.0 nM or 20 μM to 6.3 nM respectively. The plates were returned to the incubator for 1 hour. After 1 hr pretreatment, 10 μl of a 50 ng/ml TNF-α solution, prepared in the phenol-red free DMEM medium was added, and the plates were incubated for an additional 6 hours.
At the end of the TNF-α stimulation, 100 μl of Steady Lite HTS luciferase reagent (Packard Bioscience) was added to each well and the plates were left undisturbed for 10 min at room temperature before measuring the luciferase activity. The relative luciferase units (RLU) were measured by using a Fusion microplate fluorometer (Packard Bioscience).
NF-κB inducible luciferase activity was measured at 6 hours.

PC-3 = assay: Cell growth inhibition, resazurin, 48 h; settings: Homo sapiens, PC-3, 48 h, PC-3, 48 h drug exposure
[4] = molecular target: T2, chymotrypsin-like activity of rabbit muscle 20S proteasome (Oryctolagus cuniculus, UniProt G1T4Q9); assay: In vitro inhibition of 20S proteasome, suc-LLVY-AMC
T2 sequence (G1T4Q9 1-263): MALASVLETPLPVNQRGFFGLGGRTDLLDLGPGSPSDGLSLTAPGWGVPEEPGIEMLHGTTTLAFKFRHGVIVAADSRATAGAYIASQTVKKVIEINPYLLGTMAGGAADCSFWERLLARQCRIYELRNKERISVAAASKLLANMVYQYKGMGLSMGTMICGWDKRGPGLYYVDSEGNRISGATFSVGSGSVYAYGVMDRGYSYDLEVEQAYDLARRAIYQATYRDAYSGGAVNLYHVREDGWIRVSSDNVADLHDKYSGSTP

HT-29 = assay: Cell growth inhibition, resazurin, 48 h; type: cell-based, human; settings: HT-29, 48 h drug exposure
Procedure: as §1, §2

MDA-MB-231 = assay: Cell growth inhibition, resazurin, 48 h; type: cell-based, human; settings: MDA-MB-231, 48 h drug exposure
U266 = assay: Cell growth inhibition, resazurin, 48 h; type: cell-based, human; settings: Homo sapiens, U-266, 48 h, U266, 48 h drug exposure; read-out: EC50
MES-SA = assay: Cell growth inhibition, resazurin, 48 h; settings: 48 h drug exposure
Procedure: (§3) Concentrations ranging from 6.32 μM to 2 nM were tested for II-2 and II-4.

RPMI 8226 = assay: Cell growth inhibition, resazurin, 48 h
Procedure: as §1, §2

HL-60/MX2 = assay: Cell growth inhibition, resazurin, 48 h; settings: HL-60/MX2, 48 h drug exposure
Procedure: (§4) The DNA binding agent Mitoxantrone was included as a control, as HL-60/MX2 cells are reported to be resistant to this chemotherapeutic agent (Harker W. G. et al. 1989).
as §3

HL-60 = assay: Cell growth inhibition, resazurin, 48 h; settings: HL-60, 48 h drug exposure
Procedure: as §4, §3

[5] = read-out: EC50 Caspase-like (PGPH)
[6] = read-out: EC50 Chymotrypsin-like, purified rabbit 20S proteasome, suc-LLVY-AMC

Row | Structure (SMILES) | EC50 [1] | inhibition of the trypsin-like activity of the 20S proteasome [1] | EC50 (OVCAR-3; Homo sapiens, OVCAR-3, 48 h) | EC50 (OVCAR-3) | EC50 (B16-F10; Mus musculus, B16-F10, 48 h) | EC50 (NCI-H292; Homo sapiens, NCI-H292, 48 h) | EC50 [2, 5] | EC50 ([3]; 1 h pretreatment) | luciferase activity upon TNF-α stimulation [3] | EC50 (PC-3) | EC50 [4] | EC50 [4, 6] | EC50 (HT-29; Homo sapiens, HT-29, 48 h) | EC50 (MDA-MB-231; Homo sapiens, MDA-MB-231, 48 h) | other results
1 | C[C@@]12OC(=O)[C@]1([C@@H](O)[C@H]1CCC[C@H]3O[C@@H]13)NC(=O)[C@@H]2CCCl [Formula II-5A] | 0.09 µM | able to inhibit the trypsin-like activity | 0.08 µM | 0.064 µM | 0.078 ± 0.011 µM | 0.102 ± 0.019 µM | 0.535 µM and 0.438 µM | 0.033 µM | dose-dependent decrease of luciferase activity | 0.109 ± 0.015 µM | 0.002 to 0.011 µM | 0.007 µM | 0.067 ± 0.017 µM | 0.061 ± 0.0046 µM | 
2 | C[C@@]12OC(=O)[C@]1([C@@H](O)[C@H]1CCC[C@@H]3O[C@H]13)NC(=O)[C@@H]2CCCl [Formula II-5B] |  | able to inhibit the trypsin-like activity | 1.32 µM |  | 1.27 µM | 0.992 µM |  | 0.279 µM | dose-dependent decrease of luciferase activity | 1.79 µM | 0.013 to 0.088 µM | 0.085 µM |  |  | EC50 (B16-F10): 1.14 µM; EC50 (NCI-H292): 1.25 µM; EC50 ([2]; read-out: EC50 Caspase-like): 3.8 µM and 2.9 µM; EC50 (HT-29): 1.21 µM; EC50 (MDA-MB-231): 0.957 µM
3 | C[C@@]12OC(=O)[C@]1([C@@H](O)[C@@H]1C=CCCC1)NC(=O)[C@@H]2CCBr [Formula II-18] |  | able to inhibit the trypsin-like activity |  |  |  |  | 0.286 µM and 0.213 µM |  | dose-dependent decrease of luciferase activity |  |  |  |  |  | EC50 (U266): 0.0042 µM; EC50 (MES-SA): 0.017 µM; EC50 (MES-SA; Homo sapiens, 48 h): 0.022 µM; EC50 (RPMI 8226; Homo sapiens, RPMI-8226, 48 h, RPMI 8226, 48 h drug exposure): 0.0063 µM; EC50 (RPMI 8226; Homo sapiens, RPMI-8226, read-out: 1% FBS, EC50, Mean, RPMI 8226, media containing 1% FBS, mean of two): 0.014 µM; EC50 (RPMI 8226; Homo sapiens, RPMI-8226, read-out: 10% FBS, EC50, Mean, RPMI 8226, media containing 10% FBS, mean of two): 0.02 µM; % cytotoxicity (RPMI 8226; human, 48 h): 94, 94%; EC50 ([2]; read-out: EC50 Caspase-like (PGPH), listed as II-18): 0.286 µM and 0.213 µM; EC50 ([3]; 1 h pretreatment, listed as II-18, read-out: EC50): 0.011 µM; EC50 ([3]; 1 h pretreatment, read-out: EC50): 0.011 µM; EC50 ([3]; Homo sapiens, HEK293, 1 h pretreatment, read-out: EC50): 0.009 µM; EC50 (HL-60/MX2): 0.018 µM; EC50 (HL-60/MX2; Homo sapiens, HL60/MX2, 48 h): 0.019 µM; EC50 (HL-60): 0.023 µM; EC50 (HL-60; Homo sapiens, HL-60, 48 h): 0.027 µM
4 | C[C@@]12OC(=O)[C@]1([C@@H](O)[C@@H]1C=CCCC1)NC(=O)[C@@H]2CCI [Formula II-19] | 0.015 µM | able to inhibit the trypsin-like activity | 0.024 µM | 0.02 µM | 0.013 ± 0.0019 µM | 0.027 ± 0.0038 µM | 0.739 µM | 0.01 µM | dose-dependent decrease of luciferase activity | 0.029 ± 0.004 µM | 0.002 to 0.011 µM |  | 0.011 ± 0.0016 µM | 0.014 ± 0.0032 µM | EC50 (RPMI 8226; RPMI 8226, 48 h drug exposure): 0.006 µM and 0.007 µM; EC50 ([3]; 1 h pretreatment, listed as II-19): 0.01 µM; EC50 ([3]; Homo sapiens, HEK293, 1 h pretreatment): 0.007 µM
